Results published in article PMC11588130 (Proceedings of the National Academy of Sciences of the …, 2024).
pIC50: −log10 of the molar value.

Target: T1, human FXR (cotransfected with RXR) (Homo sapiens, UniProt Q96RI1)
T1 sequence (Q96RI1 1-486): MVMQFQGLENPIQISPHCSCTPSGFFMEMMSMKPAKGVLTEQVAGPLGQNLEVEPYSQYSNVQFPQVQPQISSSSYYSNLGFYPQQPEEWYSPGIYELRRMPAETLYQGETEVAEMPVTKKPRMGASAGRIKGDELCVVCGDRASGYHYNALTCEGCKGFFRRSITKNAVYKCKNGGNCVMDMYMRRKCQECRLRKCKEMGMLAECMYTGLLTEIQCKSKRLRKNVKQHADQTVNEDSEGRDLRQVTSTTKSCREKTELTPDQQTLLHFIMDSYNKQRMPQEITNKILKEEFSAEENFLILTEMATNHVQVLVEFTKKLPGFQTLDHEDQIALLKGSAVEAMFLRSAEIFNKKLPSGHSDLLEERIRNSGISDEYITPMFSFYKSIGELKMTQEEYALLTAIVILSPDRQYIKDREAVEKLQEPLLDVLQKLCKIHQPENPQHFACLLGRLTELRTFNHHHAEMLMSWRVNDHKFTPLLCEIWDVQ
T1 sequence (P19793 1-462 partner): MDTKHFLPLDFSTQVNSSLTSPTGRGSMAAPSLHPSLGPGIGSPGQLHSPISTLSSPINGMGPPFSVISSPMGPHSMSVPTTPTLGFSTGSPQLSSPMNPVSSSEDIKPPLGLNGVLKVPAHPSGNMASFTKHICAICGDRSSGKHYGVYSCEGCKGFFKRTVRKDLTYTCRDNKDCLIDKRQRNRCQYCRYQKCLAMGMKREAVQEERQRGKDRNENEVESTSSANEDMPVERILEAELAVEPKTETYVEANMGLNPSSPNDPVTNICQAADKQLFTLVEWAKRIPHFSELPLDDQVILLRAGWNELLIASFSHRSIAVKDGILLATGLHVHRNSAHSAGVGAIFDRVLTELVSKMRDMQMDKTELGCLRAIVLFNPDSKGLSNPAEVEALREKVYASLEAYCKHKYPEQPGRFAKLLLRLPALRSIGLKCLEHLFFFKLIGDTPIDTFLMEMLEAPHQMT
Assay: FXRE-luciferase reporter in HEK293
Assay type: cell-based

SMILES: C[C@H](CCC(=O)O)[C@H]1CC[C@H]2[C@@H]3C(=O)C[C@@H]4C[C@H](O)CC[C@]4(C)[C@H]3C[C@H](O)[C@]12C [7-oxo-DCA]
- pIC50: 4.86
